Measured values: PubChem BioAssay AID2060602 (Molecular Pharmacology Branch, DTP, NCI, 2025)

System: 648629-189-R-J1-PDC complex spheroids viability
Assay: Anticancer human tumor 648629-189-R-J1-PDC patient-derived bladder carcinoma cell line growth inhibition [CLK]
Conditions: for IC50: curve of first compound; for viability, T/C: stronger effect = lower value
Method in brief: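 Patient-derived tumor cells grown as complex spheroids with HUVEC endothelial cells and mesenchymal stem cells, treated with drug combinations. Concentrations descend in half-log steps from near clinical Cmax, or from 10 microM if Cmax unknown.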

[1] = second compound 0.0316 µM, first compound 0.0316 µM
[2] = second compound 0.0316 µM, first compound 0.1 µM
[3] = second compound 0.1 µM, first compound 0.0316 µM
[4] = second compound 0.1 µM, first compound 0.1 µM
[5] = second compound 0.316 µM, first compound 0.0316 µM
[6] = second compound 0.316 µM, first compound 0.1 µM
[7] = second compound 1 µM, first compound 0.0316 µM
[8] = second compound 1 µM, first compound 0.1 µM
[9] = second compound 3.16 µM, first compound 0.0316 µM
[10] = second compound 3.16 µM, first compound 0.1 µM
[11] = second compound 10 µM, first compound 0.0316 µM
[12] = second compound 10 µM, first compound 0.1 µM
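For viability, T/C in this document: drug exposure lasted seven days before viability readout; 100% = DMSO vehicle control wells.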

## CC(C)CC(NC(=O)C(Cc1ccccc1)NC(=O)c1cnccn1)B(O)O (stereo unspecified) + CNC(=O)c1ccc(Nc2nc(OC3CCCC3)c3c(-c4ccc5nc(C)oc5c4)c[nH]c3n2)c(OC)c1
Second compound 0.0316 µM
  IC50: 3.04 nM
Second compound 0.1 µM
  IC50: 2.21 nM
Second compound 0.316 µM
  IC50: < 0.949 nM
Second compound 1 µM
  IC50: < 0.949 nM
Second compound 3.16 µM
  IC50: < 0.949 nM
Second compound 10 µM
  IC50: < 0.949 nM
Second compound 0.0316 µM, first compound 0.000949 µM
  viability, T/C: 105%
Second compound 0.0316 µM, first compound 0.003 µM
  viability, T/C: 50.5%
Second compound 0.0316 µM, first compound 0.00949 µM
  viability, T/C: 1.99%
Second compound 0.0316 µM, first compound 0.03 µM
  viability, T/C: 0.26%
Second compound 0.0316 µM, first compound 0.0949 µM
  viability, T/C: 0.18%
Second compound 0.0316 µM, first compound 0.3 µM
  viability, T/C: 1.59%
Second compound 0.1 µM, first compound 0.000949 µM
  viability, T/C: 91.4%
Second compound 0.1 µM, first compound 0.003 µM
  viability, T/C: 35%
Second compound 0.1 µM, first compound 0.00949 µM
  viability, T/C: 0.64%
Second compound 0.1 µM, first compound 0.03 µM
  viability, T/C: 0.21%
Second compound 0.1 µM, first compound 0.0949 µM
  viability, T/C: 0.15%
Second compound 0.1 µM, first compound 0.3 µM
  viability, T/C: 1.03%
Second compound 0.316 µM, first compound 0.000949 µM
  viability, T/C: 34.9%
Second compound 0.316 µM, first compound 0.003 µM
  viability, T/C: 35%
Second compound 0.316 µM, first compound 0.00949 µM
  viability, T/C: 0.45%
Second compound 0.316 µM, first compound 0.03 µM
  viability, T/C: 0.28%
Second compound 0.316 µM, first compound 0.0949 µM
  viability, T/C: 0.76%
Second compound 0.316 µM, first compound 0.3 µM
  viability, T/C: 0.16%
Second compound 1 µM, first compound 0.000949 µM
  viability, T/C: 23.6%
Second compound 1 µM, first compound 0.003 µM
  viability, T/C: 24.1%
Second compound 1 µM, first compound 0.00949 µM
  viability, T/C: 2.18%
Second compound 1 µM, first compound 0.03 µM
  viability, T/C: 0.36%
Second compound 1 µM, first compound 0.0949 µM
  viability, T/C: 0.34%
Second compound 1 µM, first compound 0.3 µM
  viability, T/C: 1.9%
Second compound 3.16 µM, first compound 0.000949 µM
  viability, T/C: 28.1%
Second compound 3.16 µM, first compound 0.003 µM
  viability, T/C: 9.77%
Second compound 3.16 µM, first compound 0.00949 µM
  viability, T/C: 3.72%
Second compound 3.16 µM, first compound 0.03 µM
  viability, T/C: 0.62%
Second compound 3.16 µM, first compound 0.0949 µM
  viability, T/C: 1.49%
Second compound 3.16 µM, first compound 0.3 µM
  viability, T/C: 0.23%
Second compound 10 µM, first compound 0.000949 µM
  viability, T/C: 24.2%
Second compound 10 µM, first compound 0.003 µM
  viability, T/C: 14.2%
Second compound 10 µM, first compound 0.00949 µM
  viability, T/C: 1.91%
Second compound 10 µM, first compound 0.03 µM
  viability, T/C: 0.53%
Second compound 10 µM, first compound 0.0949 µM
  viability, T/C: 1.61%
Second compound 10 µM, first compound 0.3 µM
  viability, T/C: 1.49%

## Cn1ncnc1[C@H]1c2n[nH]c(=O)c3cc(F)cc(c23)N[C@@H]1c1ccc(F)cc1 + CNC(=O)c1ccc(Nc2nc(OC3CCCC3)c3c(-c4ccc5nc(C)oc5c4)c[nH]c3n2)c(OC)c1
Second compound 0.0316 µM
  IC50: > 100 nM
Second compound 0.1 µM
  IC50: > 100 nM
Second compound 0.316 µM
  IC50: < 0.316 nM
Second compound 1 µM
  IC50: < 0.316 nM
Second compound 3.16 µM
  IC50: < 0.316 nM
Second compound 10 µM
  IC50: < 0.316 nM
Second compound 0.0316 µM, first compound 0.000316 µM
  viability, T/C: 112%
Second compound 0.0316 µM, first compound 0.001 µM
  viability, T/C: 98.1%
Second compound 0.0316 µM, first compound 0.00316 µM
  viability, T/C: 95.4%
Second compound 0.0316 µM, first compound 0.01 µM
  viability, T/C: 102%
[1]
  viability, T/C: 81.4%
[2]
  viability, T/C: 73.6%
Second compound 0.1 µM, first compound 0.000316 µM
  viability, T/C: 86%
Second compound 0.1 µM, first compound 0.001 µM
  viability, T/C: 86.3%
Second compound 0.1 µM, first compound 0.00316 µM
  viability, T/C: 81.5%
Second compound 0.1 µM, first compound 0.01 µM
  viability, T/C: 83%
[3]
  viability, T/C: 68.3%
[4]
  viability, T/C: 75.8%
Second compound 0.316 µM, first compound 0.000316 µM
  viability, T/C: 25.7%
Second compound 0.316 µM, first compound 0.001 µM
  viability, T/C: 25.6%
Second compound 0.316 µM, first compound 0.00316 µM
  viability, T/C: 30%
Second compound 0.316 µM, first compound 0.01 µM
  viability, T/C: 21%
[5]
  viability, T/C: 22.4%
[6]
  viability, T/C: 21.3%
Second compound 1 µM, first compound 0.000316 µM
  viability, T/C: 18.4%
Second compound 1 µM, first compound 0.001 µM
  viability, T/C: 18.9%
Second compound 1 µM, first compound 0.00316 µM
  viability, T/C: 17.2%
Second compound 1 µM, first compound 0.01 µM
  viability, T/C: 18.1%
[7]
  viability, T/C: 15.6%
[8]
  viability, T/C: 12.5%
Second compound 3.16 µM, first compound 0.000316 µM
  viability, T/C: 19.2%
Second compound 3.16 µM, first compound 0.001 µM
  viability, T/C: 18.4%
Second compound 3.16 µM, first compound 0.00316 µM
  viability, T/C: 19.3%
Second compound 3.16 µM, first compound 0.01 µM
  viability, T/C: 16.3%
[9]
  viability, T/C: 17%
[10]
  viability, T/C: 16.6%
Second compound 10 µM, first compound 0.000316 µM
  viability, T/C: 18.1%
Second compound 10 µM, first compound 0.001 µM
  viability, T/C: 19.5%
Second compound 10 µM, first compound 0.00316 µM
  viability, T/C: 20.3%
Second compound 10 µM, first compound 0.01 µM
  viability, T/C: 17.7%
[11]
  viability, T/C: 19.4%
[12]
  viability, T/C: 14.8%

## O=C(c1cc(Cc2n[nH]c(=O)c3ccccc23)ccc1F)N1CCN(C(=O)C2CC2)CC1 + CNC(=O)c1ccc(Nc2nc(OC3CCCC3)c3c(-c4ccc5nc(C)oc5c4)c[nH]c3n2)c(OC)c1
Second compound 0.0316 µM
  IC50: > 10000 nM
Second compound 0.1 µM
  IC50: > 10000 nM
Second compound 0.316 µM
  IC50: < 31.6 nM
Second compound 1 µM
  IC50: < 31.6 nM
Second compound 3.16 µM
  IC50: < 31.6 nM
Second compound 10 µM
  IC50: < 31.6 nM
[1]
  viability, T/C: 92.3%
[2]
  viability, T/C: 101%
Second compound 0.0316 µM, first compound 0.316 µM
  viability, T/C: 103%
Second compound 0.0316 µM, first compound 1 µM
  viability, T/C: 106%
Second compound 0.0316 µM, first compound 3.16 µM
  viability, T/C: 83.3%
Second compound 0.0316 µM, first compound 10 µM
  viability, T/C: 74.9%
[3]
  viability, T/C: 93.6%
[4]
  viability, T/C: 95.1%
Second compound 0.1 µM, first compound 0.316 µM
  viability, T/C: 89.3%
Second compound 0.1 µM, first compound 1 µM
  viability, T/C: 86.9%
Second compound 0.1 µM, first compound 3.16 µM
  viability, T/C: 82.9%
Second compound 0.1 µM, first compound 10 µM
  viability, T/C: 70.8%
[5]
  viability, T/C: 26.9%
[6]
  viability, T/C: 29%
Second compound 0.316 µM, first compound 0.316 µM
  viability, T/C: 27.1%
Second compound 0.316 µM, first compound 1 µM
  viability, T/C: 29.1%
Second compound 0.316 µM, first compound 3.16 µM
  viability, T/C: 28.7%
Second compound 0.316 µM, first compound 10 µM
  viability, T/C: 27.4%
[7]
  viability, T/C: 18.8%
[8]
  viability, T/C: 17.3%
Second compound 1 µM, first compound 0.316 µM
  viability, T/C: 20.1%
Second compound 1 µM, first compound 1 µM
  viability, T/C: 17.2%
Second compound 1 µM, first compound 3.16 µM
  viability, T/C: 17.6%
Second compound 1 µM, first compound 10 µM
  viability, T/C: 18.6%
[9]
  viability, T/C: 15.9%
[10]
  viability, T/C: 18.9%
Second compound 3.16 µM, first compound 0.316 µM
  viability, T/C: 19%
Second compound 3.16 µM, first compound 1 µM
  viability, T/C: 20.3%
Second compound 3.16 µM, first compound 3.16 µM
  viability, T/C: 19%
Second compound 3.16 µM, first compound 10 µM
  viability, T/C: 19.2%
[11]
  viability, T/C: 23.8%
[12]
  viability, T/C: 21.7%
Second compound 10 µM, first compound 0.316 µM
  viability, T/C: 22%
Second compound 10 µM, first compound 1 µM
  viability, T/C: 19%
Second compound 10 µM, first compound 3.16 µM
  viability, T/C: 20.2%
Second compound 10 µM, first compound 10 µM
  viability, T/C: 21.1%
